Changes are numbered by the printed parent chain. In names and notes the source's numbering stands.
What was measured:
[1] = tested on: wild‐type CYP450s 1A2, 2C8, 2C9, 2C19, 2D6, 3A4, and 3A5; experiment: Metabolite identification, wild‐type CYP450‐overexpressing HEK293 microsomes; format: in vitro ADME, human; conditions: compound presented as substrate to overexpressing CYP450 microsomes
UGT2B17 = conditions: HLM panel; ref Sun et al. 2010; cited from earlier work
CYP2D6*2 = conditions: transiently expressed CYP2D6*2, bufuralol 1′‐hydroxylation; ref Sakuyama et al. (2008); cited from earlier work
CYP2C8*2 = tested on: CYP2C8*2; set-up: method as in Kaspera et al. 2010; conditions: E. coli‐expressed CYP2C8*2 vs wild‐type; M‐1 and M‐23 formation; ref Kaspera et al. 2010; cited from earlier work
CYP2C8*4 = tested on: CYP2C8*4; set-up: method as in Kaspera et al. (2010); conditions: recombinant CYP2C8*4; ref Kaspera et al. (2010); cited from earlier work
[2] = tested on: CYP2D6^Pro34Ser, Ser486Thr
CYP2C9 = CYP2C9 (Homo sapiens, UniProt P11712); conditions: wild‐type CYP2C9*1A; V max/K M
CYP2C8 = target: T1, CYP2C8 (Homo sapiens, UniProt P10632); conditions: wild‐type CYP2C8*1A; V max/K M
T1 sequence (P10632 1-490): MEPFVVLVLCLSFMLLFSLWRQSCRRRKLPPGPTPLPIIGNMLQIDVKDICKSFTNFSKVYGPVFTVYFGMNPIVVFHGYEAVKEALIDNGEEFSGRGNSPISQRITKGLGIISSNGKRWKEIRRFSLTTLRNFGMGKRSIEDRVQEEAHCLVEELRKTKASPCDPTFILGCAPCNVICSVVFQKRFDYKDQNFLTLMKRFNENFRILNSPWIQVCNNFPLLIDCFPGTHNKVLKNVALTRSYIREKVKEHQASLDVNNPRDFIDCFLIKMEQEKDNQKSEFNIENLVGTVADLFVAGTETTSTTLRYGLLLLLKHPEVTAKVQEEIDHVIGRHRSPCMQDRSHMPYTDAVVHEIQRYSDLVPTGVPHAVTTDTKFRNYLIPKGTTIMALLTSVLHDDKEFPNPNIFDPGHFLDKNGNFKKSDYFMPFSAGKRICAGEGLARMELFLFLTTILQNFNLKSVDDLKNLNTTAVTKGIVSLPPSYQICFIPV

pooled HLM = tested on: pooled HLM; set-up: method as in Kamdem et al. 2011; conditions: pooled HLM treated with ketoconazole; ref Kamdem et al. 2011; cited from earlier work
[3] = substrate: C=C1C[C@@H]2[C@H](CC[C@]3(C)C(=O)CC[C@@H]23)[C@@]2(C)C=CC(=O)C=C12; experiment: cells, lysate or membranes named; conditions: other: CYP2C8*3; normalized to relative CYP450 content; pH 7.4; 37.0 °C

Chain of CYP2C9 (P11712 whole entry): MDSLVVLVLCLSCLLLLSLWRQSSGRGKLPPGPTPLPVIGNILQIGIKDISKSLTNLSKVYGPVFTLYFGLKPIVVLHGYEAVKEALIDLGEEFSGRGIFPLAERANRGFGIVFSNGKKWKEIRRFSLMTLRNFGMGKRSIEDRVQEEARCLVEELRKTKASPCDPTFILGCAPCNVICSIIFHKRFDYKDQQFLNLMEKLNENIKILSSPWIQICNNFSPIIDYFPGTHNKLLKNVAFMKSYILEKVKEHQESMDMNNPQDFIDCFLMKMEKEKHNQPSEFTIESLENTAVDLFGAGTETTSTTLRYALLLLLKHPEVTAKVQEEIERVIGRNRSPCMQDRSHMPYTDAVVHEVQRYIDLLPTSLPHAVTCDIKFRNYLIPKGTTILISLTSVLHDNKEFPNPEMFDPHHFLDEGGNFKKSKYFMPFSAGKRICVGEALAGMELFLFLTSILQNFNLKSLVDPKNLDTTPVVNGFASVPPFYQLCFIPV

C[C@]12C=CC(=O)C=C1C(CO)=C[C@@H]1[C@@H]2CC[C@]2(C)C(=O)CC[C@@H]12 [6‐HME, 6‐hydroxymethylandrosta‐1,4,6‐triene‐3,17‐dione]
secondary metabolite formation [1]: not observed

C=C1C[C@H]2[C@@H]3CC[C@@H](O)[C@@]3(C)CC[C@@H]2[C@@]2(C)C=CC(=O)C=C12 [17α‐DHE, 17α‐hydroxy‐6‐methyleneandrosta‐1,4‐dien‐3‐one]
secondary metabolite formation [1]: not observed

C=C1C[C@H]2[C@@H]3CC[C@H](O)[C@@]3(C)CC[C@@H]2[C@@]2(C)C=CC(=O)C=C12 [17β‐DHE, 17β‐hydroxy‐6‐methyleneandrosta‐1,4‐dien‐3‐one]
glucuronidation (V max/K M) lower in UGT2B17‐null homozygotes (*2/*2) compared to wild‐type homozygotes (*1/*1) (UGT2B17): 36 fold | secondary metabolite formation [1]: not observed

CCc1cccc2cc(C(O)CNC(C)(C)C)oc12 (stereo not drawn) [bufuralol]
decrease in substrate affinity (CYP2D6*2): two‐fold

COCc1c(C(C)C)nc(C(C)C)c(/C=C/[C@@H](O)C[C@@H](O)CC(=O)O)c1-c1ccc(F)cc1 [cerivastatin]
increase in the sum of cerivastatin metabolite clearance (CYP2C8*2): 53% | increase of combined clearance of the M‐1 and M‐23 cerivastatin metabolites compared to wild‐type (CYP2C8*4): approximately 2.5 fold

C=C1C[C@@H]2[C@H](CC[C@]3(C)C(=O)CC[C@@H]23)[C@@]2(C)C=CC(=O)C=C12 [exemestane, 6‐methyleneandrosta‐1,4‐diene‐3,17‐dione]
CLINT ([2]; CYP2D6*10, V max/K M): 0.038 µL/min/mg | V max ([2]; CYP2D6*10, normalized to relative CYP450 content): 39 ± 6 pmol/min/mg | increase of the K M value for EXE substrate ([2]; CYP2D6*10 vs CYP2D6*1): 82% | decrease in clearance compared to CYP2D6*1 ([2]; human, microsomes, pH 7.4): 56% | CLINT (CYP2C9): 0.027 µL/min/mg | CLINT (CYP2C8): 0.194 µL/min/mg

CC(=O)N1CCN(c2ccc(OCC3COC(Cn4ccnc4)(c4ccc(Cl)cc4Cl)O3)cc2)CC1 (stereo not drawn) [ketoconazole]
effect on 6‐HME formation (pooled HLM): strongly inhibits

B1: CYP2C8^Arg139Lys, Lys399Arg (Homo sapiens; K399R/R139K) (protein)
chain: T1 sequence (P10632 1-490) with R139K, K399R
Vmax [3]: 0.000144 µmol/min/mg

Reference: article PMC5464343 (Pharmacology Research & Perspectives, 2017)
